# From patent publication US20250064750A1, “LIPID AND COMPOSITION USED FOR DELIVERY” (JIANGSU HENGRUI PHARMACEUTICALS CO., LTD., priority 2021, published 2025)
# Like-named read-outs stand apart in the source and are kept apart here.
# Key:
# [1] = Size and polydispersity index of liposomal nanoparticles by dynamic light scattering; type: physicochemical; details: mRNA-encapsulating liposomal nanoparticles; lipid:DSPC:cholesterol:DMG-PEG 50:10:38.5:1.5
# Method: (§1) Compound 1, compound 2, and comparative compound 1 were each dissolved in an ethanol solution, and the resulting solution was mixed with solutions of DSPC, cholesterol, and DMG-PEG in ethanol in a mole ratio of 50:10:38.5:1.5 to prepare an ethanol lipid solution. mRNA encoding a human growth factor was dissolved in a citrate buffer to prepare an aqueous mRNA solution. Liposomes were prepared by mixing the ethanol lipid solution and the aqueous mRNA solution by microfluidics with a weight ratio of total lipids to mRNA of about 20:1. The ethanol was removed by dialysis against PBS solution to give an mRNA-encapsulating liposomal nanoparticle composition.
# The size and polydispersity index (PDI) of the liposomal nanoparticles were determined using a Malvern Zetasizer Nano ZS in a 173° backscatter detection mode through dynamic light scattering.
# [2] = Liposome encapsulation efficiency, Quant-iT RiboGreen RNA assay; type: physicochemical; details: mRNA-encapsulating liposomal nanoparticles
# Method: as §1
# The liposome encapsulation efficiency was determined using a Quant-iT RiboGreen RNA assay kit.
# [3] = pKa of cations in liposomal nanoparticles, TNS fluorescence analysis; type: physicochemical; details: pH at half-maximal TNS fluorescence
# Method: as §1
# The pKa of cations in the liposomal nanoparticles was determined using a fluorescence analysis based on 6-(p-toluidino)-2-naphthalenesulfonic acid sodium salt (TNS). 150 mM NaCl, 10 mM sodium phosphate, 10 mM sodium citrate, 10 mM sodium borate, and buffers of various pH levels ranging from 3 to 11.5 were prepared. A 300 μM TNS solution was prepared and added to the buffers. The lipid nanoparticles were added to the buffers of different pH levels and thoroughly mixed with them. Then the fluorescence intensity at an excitation wavelength of 325 nm and an emission wavelength of 435 nm was measured at room temperature using a fluorescence microplate reader. A fitting analysis of the fluorescence data was performed, with the pKa being the pH value at which half-maximal fluorescence intensity was produced.
# [4] = tested on: hepatocyte growth factor protein; test: In vivo mRNA delivery by intramuscular injection, hepatocyte growth factor protein expression by ELISA; parameters: species or system BALB/c mice; details: HGF mRNA lipid nanoparticles, 0.05 mg/kg; for Mean protein expression level: thigh muscle injection, muscle tissue after 24 hours
# Method: After 24 hours, the muscle tissue at the injection site was collected, ground, and lysed. The expression level of hepatocyte growth factor protein (pg/mg), i.e., the hepatocyte growth factor protein amount to which the unit muscle tissue total protein amount corresponds, was then measured using an ELISA kit.
# With the liposomal nanoparticles to which comparative compound 1 corresponds as a control, the intramuscular injection in vivo mRNA delivery efficiency of the liposomal nanoparticles to which compounds 1 and 2 correspond was measured.
# luciferase protein = test: Tail vein injection in vivo mRNA delivery efficiency, whole-body luciferase fluorescence intensity (IVIS); parameters: species or system BALB/c mice; details: 0.5 mg/kg, 6 hours; for Fluorescence intensity level (p/s): whole body
# Method: After 6 hours, the luciferase substrate was injected intraperitoneally into each mouse. Fluorescence images of the mice were captured using an IVIS small animal optical in vivo imaging system (PerkinElme), and the whole-body fluorescence intensity of the mice was recorded. The level of fluorescence intensity reflects the expression level of luciferase protein, i.e., the in vivo mRNA delivery efficiency of the liposomal nanoparticles. […] In FIG. 2, the fluorescence intensity refers to the whole-body fluorescence intensity of the mice recorded using the IVIS small animal optical in vivo imaging system. The level of fluorescence intensity reflects the expression level of luciferase protein, i.e., the in vivo mRNA delivery efficiency of the lipid nanoparticles.
# With the liposomal nanoparticles to which comparative compound 1 corresponds as a control, the mouse tail vein injection in vivo mRNA delivery efficiency of the liposomal nanoparticles to which compound 1, compound 3, and compound 4 correspond was measured.
# [5] = Tissue targeting: cationic lipid concentrations in liver and spleen after tail vein injection, LC-MS; type: in vivo, BALB/c mice; details: 0.5 mg/kg; for AUC(0-t): female, BALB/c, mouse, intravenous, HGF mRNA lipid nanoparticles
# Method: Based on pharmacokinetic parameters, the total cationic lipid concentrations in the tissues 48 hours after administration were calculated to evaluate the distribution of lipid nanoparticles in the liver and spleen.
# interleukin 6 (IL-6) = test: In vivo immunogenicity: serum IL-6 concentration by ELISA after tail vein injection; parameters: species or system BALB/c mice; details: 0.5 mg/kg, 6 hours
# Text: When exogenous substances enter the bodies of mammals, they induce an innate immune response, thereby promoting the production of cytokines. These exogenous substances can cause inflammatory reactions after entry into the body, which easily give rise to adverse reactions such as fever and edema in the body. The immunogenicity of lipid nanoparticles in the body was therefore evaluated by evaluating the concentration of a cytokine such as interleukin 6 (IL-6) in the blood of mice injected with lipid nanoparticles. Lower cytokine concentrations indicate that the lipid nanoparticles have lower immunogenicity, which means that they are biologically safer.
# After 6 hours, blood was collected and serum was isolated. The IL-6 concentration in the serum was measured using a mouse IL-6 ELISA kit.
# [6] = female, BALB/c, mouse, in vivo, 0.5 mg/kg
# Method: (§2) To evaluate the targeting in liposomal nanoparticles' in vivo delivery, liposomal nanoparticles with mRNA for expression of hepatocyte growth factor encapsulated therein were injected into the tail veins of 6-8 week old female BALB/c mice at a dose of 0.5 mg/kg. Plasma, liver, and spleen samples were collected at 1 hour, 2 hours, 4 hours, 6 hours, 24 hours, and 48 hours after injection of the lipid nanoparticles, and the concentrations of cationic lipid molecules in the plasma samples at the corresponding time points were determined by LC-MS mass spectrometry to evaluate the metabolism and in vivo clearance rate of the lipid nanoparticles. For the lipid nanoparticles to which each compound corresponds, at least 3 biological replicates were used, and the mean cationic lipid concentrations in the tissues were calculated.
# (§3) Based on pharmacokinetic parameters, the half-lives of the cationic lipids in the tissues were calculated.
# in vivo = details: female, BALB/c, mouse, 0.5 mg/kg
# Method: as §2, §3
# [7] = luciferase mRNA lipid nanoparticles
# [8] = luciferase mRNA lipid nanoparticles, tail vein
Compound,PDI [1],Size (nm) [1] [nm],Encapsulation efficiency (%) [2] [%],pKa [3],in vivo mRNA delivery via intramuscular injection compared with comparative compound 1 ([4]; 24 hours),in vivo mRNA delivery via intramuscular injection compared with compound 2 ([4]; 24 hours),Mean protein expression level [4] [pg/mg],tail vein injection in vivo mRNA delivery efficiency compared with comparative compound 1 (luciferase protein; [7]),tail vein injection in vivo mRNA delivery efficiency compared with comparative compound 3 (so in the source) (luciferase protein; [7]),Fluorescence intensity level (p/s) (luciferase protein; [8]),protein expression level relative to lipid nanoparticles of comparative compound 1 (luciferase protein; tail vein) [times],"AUC(0-t) ([5]; cationic lipid in liver, read-out: AUC48 h (h*μg/mL) Liver) [µg·h/mL]","AUC(0-t) ([5]; cationic lipid in spleen, read-out: AUC48 h (h*μg/mL) Spleen) [µg·h/mL]",concentration in the liver compared with comparative compound 1 ([5]; liver samples at the various time points (FIG. 3)),concentration in the spleen compared with comparative compound 1 ([5]; spleen (FIG. 4)),serum IL-6 concentration compared with comparative compound 1 (interleukin 6 (IL-6)),time at which completely cleared from plasma [6] [h],concentration at 1 h (in vivo) [ng/mL],half-life (in vivo; Half-life (hours) Liver) [h],half-life (in vivo; Half-life (hours) Spleen) [h]
CCCCCCCCCCCOC(=O)CCCCCN(CCO)CCCCCOCC(=O)OC(CCCCCCCC)CCCCCCCC [Compound 1],0.08,87.8,94.6,6.65,significantly outperformed,significantly outperformed,217.3,significantly better,significantly outperformed,1.05E+09,2.1,540,493,significantly higher,significantly lower,significantly lower,4,1160,34.2,31.9
CCCCCCCCCCCOC(=O)CCCCCN(CCO)CCCCCO[C@@H](C)C(=O)OC(CCCCCCCC)CCCCCCCC [Compound 3],0.09,79.6,96.7,6.49,,,,,,4.28E+06,,,,,,,,,,
CCCCCCCCCCCOC(=O)CCCCCN(CCO)CCOCCCCC(=O)OC(CCCCCCCC)CCCCCCCC [Compound 2],0.07,116.5,97.3,6.38,,,92.5,,,,,,,,,,,,,
CCCCCCCCCCCOC(=O)CCCCCN(CCO)CCCCCOC(C)(C)C(=O)OC(CCCCCCCC)CCCCCCCC [Compound 4],0.07,74.8,97.3,6.3,,,,significantly outperformed,,6.78E+08,,,,,,significantly lower,,,,
